Results as given in patent publication US20120148680A1, “EYE CREAM AND PREPARATION METHOD” (MAYINGLONG PHARMACEUTICAL GROUP CO., LTD, priority 2010, published 2012).

System: red blood cells
Test: Stimulation test, Red Blood Cell (RBC) test system, INVITTOX n° 37
Assay type: cell-based
Conditions: relative to SDS
Protocol: Experimental method: Refer to ECVAM DB-ALM: INVITTOX protocol; Red Blood Cell Test System INVITTOX n° 37, hereinafter referred to as RBC test system.
The basic principle of the RBC test system is to determine the damage on the cell membrane caused by chemicals and the change of cell membrane permeability resulted from it. The damage degree of the cell membrane, which is directly related to the stimulation of a product, is evaluated through determining the amount of hemoglobin leaked from red blood cells.
The absorbance of red blood cell suspension after exposure to the chemicals is determined by spectrophotometric method, then the hemolysis rate and HSO value (i.e. the concentration value of the test substance, 50% of red blood cells of which develop hemolysis) can be calculated. The HSO value and the results of two grading standards in Draize test, i.e. the maximum average Draize total score (MAS) and the 24 h after application and scores of composition parameters (cornea, conjunctiva and iris) thereof are subjected to correlation analysis to show good consistency. At the same concentration, the higher the hemolysis rate of the sample is, the stronger the stimulation of the sample is.
The stimulation ratio of each sample is as shown in the following table relative to SDS after the comparison of the SDS stimulation ratio: […]

How did the Stimulation ratio turn out when `CCCCCCCCCCCCOS(=O)(=O)[O-].[Na+]` [SDS control substance, SDS] was run?
Its Stimulation ratio is 100%.
